Assay results taken from US20130225548A1, “Pyridine Derivative and Medicinal Agent” (NIPPON SHINYAKU CO., LTD., priority 2010, published 2013).
pIC50: −log10 of the molar value. Structures can show the parent of a compound that is named as a salt.

Target: T1, Syk tyrosine kinase (Homo sapiens, UniProt P43405)
T1 construct: purchased Carna Biosciences, Inc
Assay: Test for Syk tyrosine kinase inhibitory activity (ELISA)
Assay type: biochemical
Conditions: Syk tyrosine kinase (Carna Biosciences), 25 μM ATP in substrate solution, 30° C. 1 hour, n=2; read-out: Evaluation (IC50, concentration inhibiting the tyrosine kinase activity at 50%)
In short: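 Syk kinase (0.025 nM stock before addition) with 625 nM biotinylated peptide and 25 μM ATP (substrate-solution levels) in Tris pH 7.5, MgCl2, DTT; 1 h at 30 °C on streptavidin plates. Phosphotyrosine detected by HRP anti-pTyr antibody, TMB, A450; IC50 by non-linear regression.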

Row | Structure (SMILES) | pIC50
1 | N#Cc1ccnc(Nc2cc(C3CC3)cc(-c3ccc(N4CCC(C(N)=O)CC4)nc3)n2)c1 [Example 61, 1-{6-[(4-cyanopyridin-2-yl)amino]-4-cyclopropyl-2,3′-bipyridin-6′-yl}piperidine-4-carboxamide hydrochloride] | 6.30 to 7.30
2 | N#Cc1ccnc(Nc2cc(C3CC3)cc(-c3ccc(N4CCC(C(N)=O)(c5ccc(F)cc5)CC4)nc3)n2)c1 [Example 62, 1-{6-[(4-cyanopyridin-2-yl)amino]-4-cyclopropyl-2,3′-bipyridin-6′-yl}-4-(4-fluorophenyl)piperidine-4-carboxamide hydrochloride] | 7.30 to 8.30
3 | CNC(=O)CN1CCN(c2ccc(-c3cc(C4CC4)cc(Nc4cc(C#N)ccn4)n3)cn2)CC1 [Example 63, 2-(4-{6-[(4-cyanopyridin-2-yl)amino]-4-cyclopropyl-2,3′-bipyridin-6′-yl}piperazin-1-yl)-N-methylacetamide hydrochloride] | 6.30 to 7.30
4 | N#Cc1ccnc(Nc2cc(C3CC3)cc(-c3ccc(N4CCC(NC(N)=O)CC4)nc3)n2)c1 [Example 64, 1-(1-{6-[(4-cyanopyridin-2-yl)amino]-4-cyclopropyl-2,3′-bipyridin-6′-yl}piperidin-4-yl)urea hydrochloride] | 7.30 to 8.30
5 | N#Cc1ccnc(Nc2cc(C3CC3)cc(-c3ccc(NC4CCN(C(N)=O)CC4)nc3)n2)c1 [Example 65, 4-({6-[(4-cyanopyridin-2-yl)amino]-4-cyclopropyl-2,3′-bipyridin-6′-yl}amino)piperidine-1-carboxamide hydrochloride] | 7.30 to 8.30
6 | N#Cc1ccnc(Nc2cc(C3CC3)cc(-c3ccc(N4CCNCC4=O)nc3)n2)c1 [Example 66, 2-{[4-cyclopropyl-6′-(2-oxopiperazin-1-yl)-2,3′-bipyridin-6-yl]amino}pyridine-4-carbonitrile hydrochloride] | 6.30 to 7.30
7 | N#Cc1ccnc(Nc2cc(C3CC3)cc(-c3ccc(N4CCN(C(N)=O)CC4=O)nc3)n2)c1 [Example 67, 4-{6-[(4-cyanopyridin-2-yl)amino]-4-cyclopropyl-2,3′-bipyridin-6′-yl}-3-oxopiperazine-1-carboxamide hydrochloride] | 6.30 to 7.30
8 | N#Cc1ccnc(Nc2cc(C3CC3)cc(-c3ccc(CN4CCNC(=O)C4)nc3)n2)c1 [Example 70, 2-({4-cyclopropyl-6′-[(3-oxopiperazin-1-yl)methyl]-2,3′-bipyridin-6-yl}amino)pyridine-4-carbonitrile hydrochloride] | 6.30 to 7.30
9 | N#Cc1ccnc(Nc2cc(C3CC3)cc(-c3ccc(CO)nc3)n2)c1 [Example 71, 2-{[4-cyclopropyl-6′-(hydroxymethyl)-2,3′-bipyridin-6-yl]amino}pyridine-4-carbonitrile hydrochloride] | 6.30 to 7.30
10 | N#Cc1ccnc(Nc2cc(C3CC3)cc(-c3cncc(CN4CCCN(C(N)=O)CC4)c3)n2)c1 [Example 75, 4-({6-[(4-cyanopyridin-2-yl)amino]-4-cyclopropyl-2,3′-bipyridin-5′yl}methyl)-1,4-diazepane-1-carboxamide hydrochloride] | 7.30 to 8.30
11 | N#Cc1ccnc(Nc2cc(C3CC3)cc(-c3ccnc(N4CCCN(C(N)=O)CC4)c3)n2)c1 [Example 76, 4-{6-[(4-cyanopyridin-2-yl)amino]-4-cyclopropyl-2,4′-bipyridin-2′-yl}-1,4-diazepane-1-carboxamide hydrochloride] | 7.30 to 8.30
12 | N#Cc1ccnc(Nc2cc(C3CC3)cc(-c3cccc(N4CCCN(C(N)=O)CC4)c3)n2)c1 [Example 78, 4-(3-{6-[(4-cyanopyridin-2-yl)amino]-4-cyclopropylpyridin-2-yl}phenyl)-1,4-diazepane-1-carboxamide hydrochloride] | 7.30 to 8.30
13 | N#Cc1ccnc(Nc2cc(C3CC3)cc(-c3cccc(CN4CCNC(=O)C4)c3)n2)c1 [Example 79, 2-[(4-cyclopropyl-6-{3-[(3-oxopiperazin-1-yl)methyl]phenyl}pyridin-2-yl)amino]pyridine-4-carbonitrile hydrochloride] | 7.30 to 8.30
14 | N#Cc1ccnc(Nc2cc(C3CC3)cc(-c3ccc(CN4CCNC(=O)C4)cc3)n2)c1 [Example 80, 2-[(4-cyclopropyl-6-{4-[(3-oxopiperazin-1-yl)methyl]phenyl}pyridin-2-yl)amino]pyridine-4-carbonitrile hydrochloride] | 6.30 to 7.30
15 | N#Cc1ccnc(Nc2cc(C3CC3)cc(-c3cccc(CN4CCNCC4)c3)n2)c1 [Example 84, 2-({4-cyclopropyl-6-[3-(piperazin-1-ylmethyl)phenyl]pyridin-2-yl}amino)pyridine-4-carbonitrile hydrochloride] | > 8.30
16 | N#Cc1ccnc(Nc2cc(C3CC3)cc(-c3cncc(NC4CCNCC4)c3)n2)c1 [Example 85, 2-{[4-cyclopropyl-5′-(piperidin-4-ylamino)-2,3′-bipyridin-6-yl]amino}pyridine-4-carbonitrile hydrochloride] | > 8.30
17 | N#Cc1ccnc(Nc2cc(C3CC3)cc(-c3ccnc(CN4CCNCC4)c3)n2)c1 [Example 86, 2-{[4-cyclopropyl-2′-(piperazin-1-ylmethyl)-2,4′-bipyridin-6-yl]amino}pyridine-4-carbonitrile hydrochloride] | 7.30 to 8.30
18 | N#Cc1ccnc(Nc2cc(C3CC3)cc(-c3ccnc(CN4CCNC(=O)C4)c3)n2)c1 [Example 87, 2-({4-cyclopropyl-2′-[(3-oxopiperazin-1-yl)methyl]-2,4′-bipyridin-6-yl}amino)pyridine-4-carbonitrile hydrochloride] | 7.30 to 8.30
19 | N#Cc1ccnc(Nc2cc(C3CC3)cc(-c3cncc(NCCN)c3)n2)c1 [Example 90, 2-({5′-[(2-aminoethyl)amino]-4-cyclopropyl-2,3′-bipyridin-6-yl}amino)pyridine-4-carbonitrile hydrochloride] | > 8.30
20 | N#Cc1ccnc(Nc2cc(C3CC3)cc(-c3cncc(COC4CCNCC4)c3)n2)c1 [Example 91, 2-({4-cyclopropyl-5′-[(piperidin-4-yloxy)methyl]-2,3′-bipyridin-6-yl}amino)pyridine-4-carbonitrile hydrochloride] | > 8.30
21 | CN(Cc1cncc(-c2cc(C3CC3)cc(Nc3cc(C#N)ccn3)n2)c1)C1CCNCC1 [Example 92, 2-[(4-cyclopropyl-5′-{[N-methyl-N-(piperidin-4-yl)amino]methyl}-2,3′-bipyridin-6-yl)amino]pyridine-4-carbonitrile hydrochloride] | > 8.30

Other lines, results leading:

Row | pIC50 | Structure (SMILES)
22 | 6.30 to 7.30 | N#Cc1ccnc(Nc2cc(C3CC3)cc(-c3cncc(N4CCS(=O)(=O)CC4)c3)n2)c1 [Example 68, 2-{[4-cyclopropyl-5′-(1,1-dioxidethiomorpholin-4-yl)-2,3′-bipyridin-6-yl]amino}pyridine-4-carbonitrile hydrochloride]
23 | 7.30 to 8.30 | N#Cc1ccnc(Nc2cc(C3CC3)cc(-c3cncc(N4CCCN(C(N)=O)CC4)c3)n2)c1 [Example 69, 4-{6-[(4-cyanopyridin-2-yl)amino]-4-cyclopropyl-2,3′-bipyridin-5′-yl}-1,4-diazepane-1-carboxamide hydrochloride]
24 | 7.30 to 8.30 | N#Cc1ccnc(Nc2cc(C3CC3)cc(-c3ccc(CN4CCS(=O)(=O)CC4)nc3)n2)c1 [Example 72, 2-({4-cyclopropyl-6′-[(1,1-dioxidethiomorpholin-4-yl)methyl]-2,3′-bipyridin-6-yl}amino)pyridine-4-carbonitrile hydrochloride]
25 | 7.30 to 8.30 | N#Cc1ccnc(Nc2cc(C3CC3)cc(-c3cncc(CN4CCNC(=O)C4)c3)n2)c1 [Example 73, 2-({4-cyclopropyl-5′-[(3-oxopiperazin-1-yl)methyl]-2,3′-bipyridin-6-yl}amino)pyridine-4-carbonitrile hydrochloride]
26 | 7.30 to 8.30 | N#Cc1ccnc(Nc2cc(C3CC3)cc(-c3cncc(CN4CCS(=O)(=O)CC4)c3)n2)c1 [Example 74, 2-({4-cyclopropyl-5′-[(1,1-dioxidethiomorpholin-4-yl)methyl]-2,3′-bipyridin-6-yl}amino)pyridine-4-carbonitrile hydrochloride]
27 | 7.30 to 8.30 | N#Cc1ccnc(Nc2cc(C3CC3)cc(-c3cncc(NC4CCN(C(N)=O)CC4)c3)n2)c1 [Example 77, 4-({6-[(4-cyanopyridin-2-yl)amino]-4-cyclopropyl-2,3′-bipyridin-5′-yl}amino)piperidine-1-carboxamide hydrochloride]
28 | 7.30 to 8.30 | N#Cc1ccnc(Nc2cc(C3CC3)cc(-c3cncc(CN4CCNCC4)c3)n2)c1 [Example 81, 2-{[4-cyclopropyl-5′-(piperazin-1-ylmethyl)-2,3′-bipyridin-6-yl]amino}pyridine-4-carbonitrile hydrochloride]
29 | 6.30 to 7.30 | CC(=O)N1CCN(Cc2cncc(-c3cc(C4CC4)cc(Nc4cc(C#N)ccn4)n3)c2)CC1 [Example 82, 2-({5′-[(4-acetylpiperazin-1-yl)methyl]-4-cyclopropyl-2,3′-bipyridin-6-yl}amino)pyridine-4-carbonitrile hydrochloride]
30 | 7.30 to 8.30 | N#Cc1ccnc(Nc2cc(C3CC3)cc(-c3cncc(CN4CCN(C(N)=O)CC4)c3)n2)c1 [Example 83, 4-({6-[(4-cyanopyridin-2-yl)amino]-4-cyclopropyl-2,3′-bipyridin-5′-yl}methyl)piperazine-1-carboxamide hydrochloride]
31 | > 8.30 | N#Cc1ccnc(Nc2cc(C3CC3)cc(-c3cncc(N[C@@H]4CCNC4)c3)n2)c1 [Example 88, 2-({4-cyclopropyl-5′-[(3R)-pyrrolidin-3-ylamino]-2,3′-bipyridin-6-yl}amino)pyridine-4-carbonitrile hydrochloride]
32 | > 8.30 | N#Cc1ccnc(Nc2cc(C3CC3)cc(-c3cncc(N[C@H]4CCNC4)c3)n2)c1 [Example 89, 2-{(4-cyclopropyl-5′-[(3S)-pyrrolidin-3-ylamino]-2,3′-bipyridin-6-yl}amino)pyridine-4-carbonitrile hydrochloride]
